Data reported in patent publication US20030032003A1, “IN VIVO SELECTION” (priority 2000, published 2003).

Test system: Hprt +/+ mice
Assay: Biochemical analysis of mouse serum after 6TG
Type: in vivo
Details: 25 mg/kg single i.p., serum 14 days after treatment
Method: Serum biochemistry parameters analyzed included blood urea nitrogen (BUN), aspartate amino transferase (AST), alanine amino transferase (ALT), creatine kinase (CK), and alkaline phosphatase (AP). The analyses were performed at Tufts University Veterinary Medical Diagnosis Laboratory with the chemical analyser Hitachi 747. Blood was collected from the posterior vena cava of Hprt deficient mice that were either treated with water, 25, 500, or 720 mg/kg 6TG i.p. and wildtype mice administered 25 mg/kg 6TG.
Hprt wildtype mice were treated with the sublethal dose of 25 mg/kg 6TG and Hprt mutant mice were treated with the sublethal doses of […] 6TG. Serum samples taken 14 days after treatment were evaluated for the levels of blood urea nitrogen (BUN), aspartate amino transferase (AST), alanine amino transferase (ALT), creatine kinase (CK) and alkaline phosphatase (AP). Elevated BUN is associated with dehydratation and/or renal insufficiency. Elevated activities of ALT and AST are characteristic for liver damage particularly necrosis, cirrhosis and/or hepatitis and also muscle trauma or myocardial infarction or myositis. Elevated AP is associated mostly with increased bone marrow metabolism and also with hapatocellular damage during hepatitis. CK is predominantly located in muscles and therefore its increased activities are consequence of muscular trauma, myocardial infarction or myopathic disorders.

Nc1nc(S)c2[nH]cnc2n1 [6TG, 2-amino-6-merkaptopurine] showed an ALT of 197 ± 66.8 u/l, an AP of 50.0 ± 33.4 u/l and an AST of 256.3 ± 73.9 u/l. The BUN was 45.0 ± 24.6 mg/dL and the CK was 73.3 ± 13.9 u/l.
